The values that follow come from PMC3919579, “Timing of GTP binding and hydrolysis by translation termination factor RF3” (Nucleic Acids Research, 2013).

T1 sequence (P0A7I4 2-529): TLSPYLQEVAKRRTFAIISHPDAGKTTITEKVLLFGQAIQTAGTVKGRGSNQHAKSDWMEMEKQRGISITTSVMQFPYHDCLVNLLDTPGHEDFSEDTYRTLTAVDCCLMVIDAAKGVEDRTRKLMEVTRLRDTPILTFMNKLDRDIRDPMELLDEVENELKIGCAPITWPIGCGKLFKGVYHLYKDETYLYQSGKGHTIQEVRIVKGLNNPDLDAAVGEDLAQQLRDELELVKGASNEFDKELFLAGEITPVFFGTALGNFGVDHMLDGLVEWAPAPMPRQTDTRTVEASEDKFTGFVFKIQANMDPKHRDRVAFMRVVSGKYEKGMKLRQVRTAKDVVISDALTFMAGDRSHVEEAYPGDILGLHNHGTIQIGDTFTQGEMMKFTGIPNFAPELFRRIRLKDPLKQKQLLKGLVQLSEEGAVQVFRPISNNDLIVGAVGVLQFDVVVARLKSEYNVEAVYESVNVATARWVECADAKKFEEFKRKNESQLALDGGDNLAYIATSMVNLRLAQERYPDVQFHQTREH

This experiment has as its target T1, RF3 (Escherichia coli, UniProt P0A7I4).
T1 construct: gene prfC; free RF3, N-terminal His-tag, pET30a, BL21(DE3), Ni-NTA and Resource Q
Put plainly: competition titration against mantGDP, FRET. It counts as binding. The settings on record: pH 7.5, 37 °C, 7 mM MgCl2; competition with purified RF3-mantGDP.
As for `Nc1nc2c(ncn2[C@@H]2O[C@H](COP(=O)(O)OP(=O)(O)CP(=O)(O)O)[C@@H](O)[C@H]2O)c(=O)[nH]1` [GDPCP], the “ratio of added nucleotide to mantGDP at half-saturation” value (“ratio of added nucleotide to mantGDP” for short) turned out to be 60 fold.

Turning to `Nc1nc2c(ncn2[C@@H]2O[C@H](COP(=O)(O)OP(=O)(O)NP(=O)(O)O)[C@@H](O)[C@H]2O)c(=O)[nH]1` [GDPNP], the “ratio of added nucleotide to mantGDP” value was determined as 40 fold.

Turning to `Nc1nc2c(ncn2[C@@H]2O[C@H](COP(=O)(O)OP(=O)(O)O)[C@@H](O)[C@H]2O)c(=O)[nH]1` [GDP], the “ratio of added nucleotide to mantGDP” value worked out at 1 fold. Take `Nc1nc2c(ncn2[C@@H]2O[C@H](COP(=O)(O)OP(=O)(O)OP(=O)(O)O)[C@@H](O)[C@H]2O)c(=O)[nH]1` [GTP]: the “ratio of added nucleotide to mantGDP” value was 3 fold.
